{"source": "paper PMC10528180", "about": "(Foods, 2023)", "key": {"α-glucosidase [1]": {"target": "T1, α-glucosidase (Saccharomyces cerevisiae, UniProt P53341)", "T1 construct": "purchased Sigma-Aldrich Co", "T1 sequence (P53341 whole entry)": "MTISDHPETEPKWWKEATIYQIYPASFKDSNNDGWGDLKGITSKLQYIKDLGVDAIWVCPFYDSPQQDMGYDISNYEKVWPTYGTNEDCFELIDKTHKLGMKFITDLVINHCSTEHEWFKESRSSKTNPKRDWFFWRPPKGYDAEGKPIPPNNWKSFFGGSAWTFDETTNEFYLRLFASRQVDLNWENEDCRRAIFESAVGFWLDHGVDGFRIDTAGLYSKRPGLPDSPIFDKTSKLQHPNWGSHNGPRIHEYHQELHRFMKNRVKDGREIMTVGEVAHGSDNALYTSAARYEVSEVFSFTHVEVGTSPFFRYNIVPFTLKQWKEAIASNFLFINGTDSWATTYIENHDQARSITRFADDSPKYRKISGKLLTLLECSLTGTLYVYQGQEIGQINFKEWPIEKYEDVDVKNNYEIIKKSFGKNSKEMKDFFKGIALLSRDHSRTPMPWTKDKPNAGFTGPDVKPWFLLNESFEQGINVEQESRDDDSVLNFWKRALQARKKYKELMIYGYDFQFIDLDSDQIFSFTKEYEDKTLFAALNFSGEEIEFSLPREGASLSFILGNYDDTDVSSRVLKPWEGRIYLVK", "test": "Inhibition kinetic analysis (Lineweaver-Burk) on α-glucosidase", "assay_type": "biochemical", "description": "The reactions of a series of compounds with substrates pNαPG and G3-CNP were tested using the Lineweaver–Burk expression in Equation (1) to calculate the maximum velocity (Vmax) and Michaelis–Menten constant (Km) values. (1) 1/v=Km/Vmax1/[S]+1/Vmax, where Vmax and Km are the maximum velocity of the enzyme and the Michaelis–Menten constant without inhibitor, respectively. [S] is the concentrations of the substrate and inhibitor."}, "α-glucosidase [2]": {"target": "T1, α-glucosidase", "test": "Fluorescence quenching experiment with α-glucosidase (Stern-Volmer, double logarithmic, Van 't Hoff)", "assay_type": "binding", "settings": "for Kd: Ka (binding constant) α-glucosidase", "description": "Based on the previously described techniques, the fluorescence quenching experiment was somewhat modified. […] The reaction solution’s fluorescence intensity was measured in a quartz colorimetric dish using a fluorescence spectrometer (F-7100, Tokyo, Japan) at wavelengths ranging from 295 to 500 nm (emission wavelength) and 280 nm ([…]) (1.0 cm path length). The 5.0 nm excitation and emission slit widths were predetermined.\nBy determining the quenching constant, it is possible to discriminate between dynamic and static protein fluorescence quenching caused by compounds [39]. […] With the increase in temperature, the binding of the complex is unstable, so the quenching constant decreases. The drop in fluorescence intensity brought on by the interaction of the quencher and the fluorescence group is what causes dynamic quenching. When the collision between the quencher and the fluorescence group intensifies as the temperature rises, the quenching constant rises. The quenching mechanism of the enzyme was further studied using the Stern–Volmer equation:(2) F0/F=1+Kqτ0Q=1+Ksv[Q], where Kq is the bimolecular quenching constant, F0 represents the fluorescence intensity of starch-digesting enzymes in the absence of inhibitors, F represents the fluorescence intensity of starch-digesting enzymes in the presence of inhibitors, and τ0 is the lifetime of the fluorophore in protein (about 10^−8 s).\nBy calculating the thermodynamic parameters of the quenching process, the binding affinity and the main force of the reaction process were evaluated. The thermodynamic parameters are calculated using the Van ’t Hoff equation:(4) lnKa=−△H/RT+△S/R. (5) △G=△H−T△S. where Ka is the binding constant, R is the universal gas constant, and T represents the test temperature (300.15 K, 305.15 K, 310.15 K). The thermodynamic parameters ΔH, ΔS, and ΔG represent enthalpy change, entropy change, and free energy change, respectively. […] The interaction forces in the reaction process can be roughly divided into four types: hydrophobic interaction, hydrogen bonding, electrostatic interaction, and van der Waals interaction."}, "α-amylase": {"target": "T2, α-amylase (Sus scrofa, UniProt P00690)", "T2 construct": "α-amylase (EC 232-565-6, powder, ≥5 units/mg solid) isolated from porcine pancreas; purchased Sigma-Aldrich Co; host or cells: porcine pancreas", "T2 sequence (P00690 16-511)": "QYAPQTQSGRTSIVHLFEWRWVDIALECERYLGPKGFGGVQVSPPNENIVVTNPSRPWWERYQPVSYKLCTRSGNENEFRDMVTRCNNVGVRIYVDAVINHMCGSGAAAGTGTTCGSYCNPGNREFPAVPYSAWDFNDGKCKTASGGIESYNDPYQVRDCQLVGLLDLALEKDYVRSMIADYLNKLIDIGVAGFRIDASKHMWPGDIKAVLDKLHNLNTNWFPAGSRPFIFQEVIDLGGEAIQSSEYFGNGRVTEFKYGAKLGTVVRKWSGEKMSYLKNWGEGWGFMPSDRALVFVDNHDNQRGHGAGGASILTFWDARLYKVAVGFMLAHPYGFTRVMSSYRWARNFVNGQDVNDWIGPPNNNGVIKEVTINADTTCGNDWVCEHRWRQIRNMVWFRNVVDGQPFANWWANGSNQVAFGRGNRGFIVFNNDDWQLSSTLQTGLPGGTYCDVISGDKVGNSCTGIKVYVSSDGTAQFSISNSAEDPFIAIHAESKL", "test": "Fluorescence quenching experiment with α-amylase (Stern-Volmer, double logarithmic, Van 't Hoff)", "assay_type": "binding, porcine", "settings": "for Kd: Ka (binding constant) α-amylase", "from_the_text": "Based on the previously described techniques, the fluorescence quenching experiment was somewhat modified. […] The 5.0 nm excitation and emission slit widths were predetermined.\nThe drop in fluorescence intensity brought on by the interaction of the quencher and the fluorescence group is what causes dynamic quenching. When the collision between the quencher and the fluorescence group intensifies as the temperature rises, the quenching constant rises. The quenching mechanism of the enzyme was further studied using the Stern–Volmer equation:(2) F0/F=1+Kqτ0Q=1+Ksv[Q], where Kq is the bimolecular quenching constant, F0 represents the fluorescence intensity of starch-digesting enzymes in the absence of inhibitors, F represents the fluorescence intensity of starch-digesting enzymes in the presence of inhibitors, and τ0 is the lifetime of the fluorophore in protein (about 10^−8 s).\nBy calculating the thermodynamic parameters of the quenching process, the binding affinity and the main force of the reaction process were evaluated. […] The thermodynamic parameters ΔH, ΔS, and ΔG represent enthalpy change, entropy change, and free energy change, respectively. […] The interaction forces in the reaction process can be roughly divided into four types: hydrophobic interaction, hydrogen bonding, electrostatic interaction, and van der Waals interaction."}}}
{"smiles": "O=c1c(O)c(-c2ccc(O)c(O)c2)oc2cc(O[C@@H]3O[C@H](CO)[C@@H](O)[C@H](O)[C@H]3O)cc(O)c12", "note": "[Quercimeritrin]", "values": [{"measurement": "inhibition mode on α-glucosidase", "setting": "α-glucosidase [1]; Lineweaver-Burk diagram", "result": "competitive inhibition"}, {"measurement": "Vmax α-glucosidase", "setting": "α-glucosidase [1]; [I] 15.6 μM", "result": 0.2151}, {"measurement": "Vmax α-glucosidase", "setting": "α-glucosidase [1]; [I] 31.3 μM", "result": 0.2028}, {"measurement": "Vmax α-glucosidase", "setting": "α-glucosidase [1]; [I] 62.5 μM", "result": 0.2000}, {"measurement": "Vmax α-glucosidase", "setting": "α-glucosidase [1]; [I] 125 μM", "result": 0.1916}, {"measurement": "Vmax α-glucosidase", "setting": "α-glucosidase [1]; [I] 250 μM", "result": 0.1890}, {"measurement": "Vmax α-glucosidase", "setting": "α-glucosidase [1]; [I] 500 μM", "result": 0.1761}, {"measurement": "fluorescence quenching mechanism, α-glucosidase", "setting": "α-glucosidase [2]", "result": "static quenching"}, {"measurement": "Kd", "setting": "α-glucosidase [2]; T 300.15 K", "result": 1.15, "unit": "µM"}, {"measurement": "Kd", "setting": "α-glucosidase [2]; T 305.15 K", "result": 9.62, "unit": "µM"}, {"measurement": "Kd", "setting": "α-glucosidase [2]; T 310.15 K", "result": 24.4, "unit": "µM"}, {"measurement": "Ksv (quenching constant) α-glucosidase", "setting": "α-glucosidase [2]; T 300.15 K", "result": "0.17 ±0.03 10^5 /M"}, {"measurement": "n (number of binding sites) α-glucosidase", "setting": "α-glucosidase [2]; T 300.15 K", "result": 1.35}, {"measurement": "ΔG α-glucosidase", "setting": "α-glucosidase [2]; T 300.15 K", "result": "-8.15 ± 2.22", "unit": "kcal/mol"}, {"measurement": "Ksv (quenching constant) α-glucosidase", "setting": "α-glucosidase [2]; T 305.15 K", "result": "0.19 ±0.02 10^5 /M"}, {"measurement": "n (number of binding sites) α-glucosidase", "setting": "α-glucosidase [2]; T 305.15 K", "result": 1.20}, {"measurement": "ΔG α-glucosidase", "setting": "α-glucosidase [2]; T 305.15 K", "result": "-7 ± 2.24", "unit": "kcal/mol"}, {"measurement": "Ka (binding constant) α-glucosidase", "setting": "α-glucosidase [2]; T 310.15 K", "result": "0.41 ± 0.06 10^5 /M"}, {"measurement": "Ksv (quenching constant) α-glucosidase", "setting": "α-glucosidase [2]; T 310.15 K", "result": "0.21 ±0.04 10^5 /M"}, {"measurement": "n (number of binding sites) α-glucosidase", "setting": "α-glucosidase [2]; T 310.15 K", "result": 1.09}, {"measurement": "ΔG α-glucosidase", "setting": "α-glucosidase [2]; T 310.15 K", "result": "-6.55 ± 1.87", "unit": "kcal/mol"}, {"measurement": "ΔH α-glucosidase", "setting": "α-glucosidase [2]; Van 't Hoff, 300.15-310.15 K", "result": "-56.6 ± 5.598", "unit": "kcal/mol"}, {"measurement": "ΔS α-glucosidase", "setting": "α-glucosidase [2]; Van 't Hoff, 300.15-310.15 K", "result": "-677.34 ±87.38", "unit": "J/mol/K"}, {"measurement": "n (number of binding sites) α-glucosidase", "setting": "α-glucosidase [2]; text summary over temperatures", "result": "~1"}, {"measurement": "fluorescence quenching mechanism, α-amylase", "setting": "α-amylase", "result": "static quenching"}, {"measurement": "Kd", "setting": "α-amylase; T 300.15 K", "result": 15.2, "unit": "µM"}, {"measurement": "Kd", "setting": "α-amylase; T 305.15 K", "result": 28.6, "unit": "µM"}, {"measurement": "Kd", "setting": "α-amylase; T 310.15 K", "result": 38.5, "unit": "µM"}, {"measurement": "Ksv (quenching constant) α-amylase", "setting": "α-amylase; T 300.15 K", "result": "0.13 ±0.03 10^5 /M"}, {"measurement": "n (number of binding sites) α-amylase", "setting": "α-amylase; T 300.15 K", "result": 1.20}, {"measurement": "Ksv (quenching constant) α-amylase", "setting": "α-amylase; T 305.15 K", "result": "0.15 ±0.02 10^5 /M"}, {"measurement": "n (number of binding sites) α-amylase", "setting": "α-amylase; T 305.15 K", "result": 1.10}, {"measurement": "Ka (binding constant) α-amylase", "setting": "α-amylase; T 310.15 K", "result": "0.26 ± 0.01 10^5 /M"}, {"measurement": "Ksv (quenching constant) α-amylase", "setting": "α-amylase; T 310.15 K", "result": "0.18 ±0.04 10^5 /M"}, {"measurement": "n (number of binding sites) α-amylase", "setting": "α-amylase; T 310.15 K", "result": 1.04}, {"measurement": "ΔH α-amylase", "setting": "α-amylase; Van 't Hoff, 300.15-310.15 K", "result": "-3.37 ± 0.93", "unit": "kcal/mol"}, {"measurement": "ΔS α-amylase", "setting": "α-amylase; Van 't Hoff, 300.15-310.15 K", "result": "-153.31 ±34.89", "unit": "J/mol/K"}, {"measurement": "n (number of binding sites) α-amylase", "setting": "α-amylase; text summary over temperatures", "result": "~1"}]}
